Assay results taken from patent publication US20130143891A1, “Methods for Treating Methotrexate-Resistant Disorders with 10-Propargyl-10-Deazaaminopterin” (ALLOS THERAPEUTICS, INC., priority 2010, published 2013).
Where two headings read alike, the source gives them in different places.

Key:
[1] = tested on: COLO205 colon cancer cell line; experiment: MTT cell cytotoxicity assay, COLO205; type: cell-based, human; settings: 72 h exposure, read-out: Cytotoxicity (IC50s)
Method: (§1) A panel of colon (HT29, HCT116, COLO205, HCC2998), breast (MCF7, MDA-MB-435), lung (HOP62, HOP92), ovarian (OVCAR3, IGROV1), prostate (DU145, PC3), and head and neck (SCC61, HEP2, SQ20B) human cancer cell lines was purchased from the ATCC (Rockville, Md.) and National Cancer Institute collections. […] All the data generated was the result of three separate experiments performed in duplicate. Cell viability was determined using the MTT assay, which was carried out as described previously (Hansen, 1989). Briefly, cells were seeded in 96-well plates at a density of 2×10^3 cells well^−1. […] The monolayer was suspended in 0.1 ml of DMSO and the absorbance at 560 nm was measured using a microplate reader. Positive and negative controls included wells with untreated cells or medium containing MTT with no cells, respectively. The conversion of yellow water-soluble tetrazolium MTT into purple insoluble formazan is catalyzed by mitochondrial dehydrogenases and is used to estimate the number of viable cells.

DHFR = experiment: Western blot of DHFR protein expression; type: cell-based, human
Method: Cells were lysed in buffer containing 50 mM HEPES (pH 7.6), 150 mM NaCl, 1% Triton X-100, 2 mM sodium vanadate, 100 mM NaF, and 0.4 mg·ml^−1 phenylmethylsulfonyl fluoride. Equal amounts of protein (20-50 μg/lane) were subjected to SDS-PAGE and transferred to nitrocellulose membranes. Membranes were probed with anti-cleaved PARP, anti-cleaved caspase 3, anti-caspase 9 (Cell Signaling, Saint Quentin Yvelines, France), anti-DHFR (Abcam, France), anti-β-actin (Sigma Aldrich, Saint-Quentin Fallavier, France) specific primary antibodies followed by peroxidase-linked secondary antibodies and visualization by chemiluminescence.

[2] = tested on: DU145 prostate cancer cell line; experiment: MTT cell cytotoxicity assay, DU145; type: cell-based, human; settings: naïve/parental, 72 h exposure, read-out: Cytotoxicity (IC50s)
Method: as §1

[3] = tested on: IGROV1 ovarian cancer cell line; experiment: MTT cell cytotoxicity assay, IGROV1; type: cell-based, human; settings: 72 h exposure, read-out: Cytotoxicity (IC50s)
Method: as §1

[4] = tested on: HEP2 head and neck cancer cell line; experiment: MTT cell cytotoxicity assay, HEP2; type: cell-based, human; settings: 72 h exposure, read-out: Cytotoxicity (IC50s)
Method: as §1

[5] = tested on: 15 human solid tumor cell lines; experiment: Cytotoxicity across panel of 15 human solid tumor cell lines; type: cell-based
Method: A panel of colon (HT29, HCT116, COLO205, HCC2998), breast (MCF7, MDA-MB-435), lung (HOP62, HOP92), ovarian (OVCAR3, IGROV1), prostate (DU145, PC3), and head and neck (SCC61, HEP2, SQ20B) human cancer cell lines was purchased from the ATCC (Rockville, Md.) and National Cancer Institute collections. Cells were grown as monolayers in RPMI medium supplemented with 10% fetal calf serum, 2 mM glutamine, 100 units ml^−1 penicillin and […] streptomycin.
(§2) All the data generated was the result of three separate experiments performed in duplicate. Cell viability was determined using the MTT assay, which was carried out as described previously (Hansen, 1989). Briefly, cells were seeded in 96-well plates at a density of 2×10^3 cells well^−1. Cells were incubated for 120 hours and then 0.4 mg ml^−1 of MTT dye (3-[4,5-dimethylthiazol-2-yl]-2,5-diphenyltetrazolium bromide was added for 4 hours at 37° C. The monolayer was suspended in 0.1 ml of DMSO and the absorbance at 560 nm was measured using a microplate reader. Positive and negative controls included wells with untreated cells or medium containing MTT with no cells, respectively. The conversion of yellow water-soluble tetrazolium MTT into purple insoluble formazan is catalyzed by mitochondrial dehydrogenases and is used to estimate the number of viable cells. The control value corresponding to untreated cells was taken as 100% and the viability of treated samples was expressed as a percentage of the control. IC50 values were determined as concentrations that reduced cell viability by 50%.
(§3) For single agent studies, cells were seeded and allowed to settle for 24 hours prior to treatment with increasing concentrations of 10-propargyl-10-deazaminopterin for 72 h. After incubation, the cells were allowed to recover in compound-free medium for 48 h, prior to determination of growth inhibition using the MTT assay.

HEP-PDX cells = experiment: Cytotoxicity in 10-propargyl-10-deazaminopterin-adapted HEP2 cells; type: cell-based, human
Method: as §2, §3
(§4) To characterize the predictive factors of 10-propargyl-10-deazaminopterin antiproliferative effects, the cell lines DU-PDX and HEP-PDX were developed from parental DU145 and HEP2 cells, respectively, by exposure to stepwise increasing concentrations of 10-propargyl-10-deazaminopterin over a period of 6 months.

DU-MTX cells = experiment: Cytotoxicity in methotrexate-adapted DU145 cells; type: cell-based, human
Method: as §2, §3
To compare the mechanisms of 10-propargyl-10-deazaminopterin and methotrexate resistance, the cell lines DU-MTX and HEP-MTX were developed from parental DU145 and HEP2 cells by exposure to stepwise increasing concentrations of methotrexate.

DU-PDX cells = experiment: Cytotoxicity in 10-propargyl-10-deazaminopterin-adapted DU145 cells; type: cell-based, human
Method: as §2, §3, §4

[6] = tested on: OVCAR3 ovarian cancer cell line; experiment: MTT cell cytotoxicity assay, OVCAR3; type: cell-based, human; settings: Homo sapiens, OVCAR-3, 72 h, 72 h exposure, read-out: Cytotoxicity (IC50s)
Method: as §1

[7] = tested on: SQ20B head and neck cancer cell line; experiment: MTT cell cytotoxicity assay, SQ20B; type: cell-based, human; settings: Homo sapiens, SQ20B, 72 h, 72 h exposure, read-out: Cytotoxicity (IC50s)
Method: as §1

[8] = tested on: HCC2998 colon cancer cell line; experiment: MTT cell cytotoxicity assay, HCC2998; type: cell-based, human; settings: Homo sapiens, HCC 2998, 72 h, 72 h exposure, read-out: Cytotoxicity (IC50s)
Method: as §1

[9] = tested on: SCC61 head and neck cancer cell line; experiment: MTT cell cytotoxicity assay, SCC61; type: cell-based, human; settings: Homo sapiens, 72 h, 72 h exposure, read-out: Cytotoxicity (IC50s)
Method: as §1

[10] = tested on: MDA-MB-435 melanoma cell line; experiment: MTT cell cytotoxicity assay, MDA-MB-435; type: cell-based, human; settings: Homo sapiens, MDA-MB-435, 72 h, MDA-MB-435 (melanoma; MDA435 in table), 72 h exposure; read-out: Cytotoxicity (IC50s)
Method: as §1

HOP62 NSCLC cell line = experiment: MTT cell cytotoxicity assay, HOP62; type: cell-based, human; settings: Homo sapiens, HOP-62, 72 h, 72 h exposure, read-out: Cytotoxicity (IC50s)
Method: as §1

[11] = tested on: HCT116 colon cancer cell line; experiment: MTT cell cytotoxicity assay, HCT116; type: cell-based, human; settings: Homo sapiens, HCT-116, 72 h, 72 h exposure, read-out: Cytotoxicity (IC50s)
Method: as §1

[12] = tested on: HT29 colon cancer cell line; experiment: MTT cell cytotoxicity assay, HT29; type: cell-based, human; settings: Homo sapiens, HT-29, 72 h, 72 h exposure, read-out: Cytotoxicity (IC50s)
Method: as §1

[13] = tested on: MCF7 breast cancer cell line; experiment: MTT cell cytotoxicity assay, MCF7; type: cell-based, human; settings: Homo sapiens, MCF7, 72 h, 72 h exposure, read-out: Cytotoxicity (IC50s)
Method: as §1

HOP92 NSCLC cell line = experiment: MTT cell cytotoxicity assay, HOP92; type: cell-based, human; settings: Homo sapiens, HOP-92, 72 h, 72 h exposure, read-out: Cytotoxicity (IC50s)
Method: as §1

[14] = tested on: PC3 prostate cancer cell line; experiment: MTT cell cytotoxicity assay, PC3; type: cell-based, human; settings: Homo sapiens, 72 h, 72 h exposure, read-out: Cytotoxicity (IC50s)
Method: as §1

C#CCC(Cc1cnc2nc(N)nc(N)c2n1)c1ccc(C(=O)N[C@@H](CCC(=O)O)C(=O)O)cc1 (mixture of isomers) [Pralatrexate, (2S)-2-[[4-[(1RS)-1-[(2,4-diaminopteridin-6-yl)methyl]but-3-ynyl]benzoyl]amino]pentanedioic acid]
IC50 [1]: 9 µM | IC50 ([1]; Homo sapiens, COLO 205, 72 h): ≥ 9 µM | DHFR protein expression after prolonged exposure (DHFR; 6 months exposure, HEP-PDX cells): not after prolonged (6 months) exposure | DHFR protein expression after short exposure (DHFR; 24 hour exposure (FIG. 6)): slightly increased | IC50 ([2]; listed as 10-propargyl-10-deazaminopterin): 0.01 µM | IC50 [3]: 0.08 µM | IC50 ([3]; Homo sapiens, IGROV-1, 72 h): < 0.1 µM | IC50 [4]: 0.05 µM | IC50 ([4]; Homo sapiens, HEp-2, 72 h): < 0.1 µM | IC50 ([5]; 6 of the 15 human cancer cell lines, read-out: IC50 in the 6 relatively resistant of 15 cell lines): > 9 µM | IC50s on average lower than those observed for methotrexate ([5]; average over the panel): ~10 fold | IC50 ([5]; nine of the 15 human cancer cell lines, read-out: IC50 in the nine sensitive of 15 cell lines): < 0.1 µM | less sensitive (resistant) than parental cells (HEP-PDX cells; HEP-PDX versus parental HEP2): more than 200 fold | change in cytotoxicity with and without verapamil and cyclosporine A (HEP-PDX cells; HEP-PDX, 30 μM verapamil and 3 μM cyclosporin A concomitantly for 72 hours): No changes were observed | IC50 lower than that of methotrexate (DU-MTX cells; DU-MTX cells): approximately 10 fold | IC50 (DU-MTX cells; Homo sapiens, DU-145, DU-MTX cells (FIG. 3), read-out: IC50 for the methotrexate adapted DU-145 cell lines): 0.02 µM | less sensitive (resistant) than parental cells (DU-PDX cells; DU-PDX versus parental DU145): more than 200 fold | change in cytotoxicity with and without verapamil and cyclosporine A (DU-PDX cells; DU-PDX, 30 μM verapamil and 3 μM cyclosporin A concomitantly for 72 hours): No changes were observed

O=c1[nH]cc(F)c(=O)[nH]1 [5-FU, 5-fluorouracil]
IC50 [6]: 31 µM | IC50 [7]: 10 µM | IC50 ([1]; Homo sapiens, COLO 205, 72 h): 0.8 µM | IC50 [8]: 10 µM | IC50 [9]: 1.2 µM | IC50 [10]: 5 µM | IC50 ([2]; Homo sapiens, DU-145, 72 h): 7 µM | IC50 ([3]; Homo sapiens, IGROV-1, 72 h): 8 µM | IC50 (HOP62 NSCLC cell line): 78 µM | IC50 [11]: 10 µM | IC50 [12]: 3 µM | IC50 [13]: 1.3 µM | IC50 ([4]; Homo sapiens, HEp-2, 72 h): 86 µM | cross-resistance: cytotoxicity in HEP-PDX compared with parental HEP2 (HEP-PDX cells; HEP-PDX cells, 72 h exposure for pemetrexed and 5-FU): No significant difference | IC50 (HOP92 NSCLC cell line): 18 µM | IC50 [14]: 1.5 µM | cross-resistance: cytotoxicity in DU-PDX compared with parental DU145 (DU-PDX cells; DU-PDX cells, 72 h exposure for pemetrexed and 5-FU): No significant difference
